Data: patent US9150568B2, “Compositions and methods for modulating FXR” (NOVARTIS AG, priority 2010, dated 2015)

Target: T1, human Farnesoid X Receptor (FXR) ligand binding domain (GST-FXR LBD) (Homo sapiens, UniProt Q96RI1)
T1 construct: purchased Invitrogen
T1 sequence (Q96RI1 193-472 isoform Q96RI1-2): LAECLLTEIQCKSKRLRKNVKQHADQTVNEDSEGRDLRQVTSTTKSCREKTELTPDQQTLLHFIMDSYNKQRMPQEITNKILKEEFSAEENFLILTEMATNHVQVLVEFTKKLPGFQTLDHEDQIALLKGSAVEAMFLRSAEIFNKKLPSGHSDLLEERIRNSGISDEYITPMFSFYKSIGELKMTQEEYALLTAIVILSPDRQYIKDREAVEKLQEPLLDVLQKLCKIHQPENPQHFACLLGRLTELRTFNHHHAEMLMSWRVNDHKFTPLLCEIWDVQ
Test: Human GST-FXR LBD co-activator interaction assay (HTRF)
Format: biochemical
Conditions: GST-FXR LBD / biotin-SRC-1 peptide FRET; response relative to GW4064; read-out: FXR Co-activator interaction assay (EC50)
In short: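 FRET (HTRF) read-out of ligand-induced binding between GST-FXR LBD and an SRC-1 peptide, detected with anti-GST cryptate and streptavidin-XL665 in buffer with 50 mM KF. Response % was normalized to DMSO and to the maximal GW4064 response. EC50 came from a four-parameter fit.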

Compound | EC50 [nM]
COC(=O)c1ccnc(N2C3CC[C@H]2CC(OCc2c(-c4ccccc4OC(F)F)noc2C2CC2)C3)n1 (stereo partly drawn) [Example 22-2A] | 60
O=C(O)c1ccnc(N2C3CC[C@H]2CC(OCc2c(-c4ccccc4OC(F)F)noc2C2CC2)C3)n1 (stereo partly drawn) [Example 22-2B] | 9
COC(=O)c1cccc(N2C3CC[C@H]2CC(OCc2c(-c4ccccc4OC(F)F)noc2C2CC2)C3)n1 (stereo partly drawn) [Example 22-3] | 10
COC(=O)c1cnc(N2C3CC[C@H]2CC(OCc2c(-c4ccccc4OC(F)F)noc2C2CC2)C3)cc1C (stereo partly drawn) [Example 22-4A] | 20
Cc1cc(N2C3CC[C@H]2CC(OCc2c(-c4ccccc4OC(F)F)noc2C2CC2)C3)ncc1C(=O)O (stereo partly drawn) [Example 22-4B] | 9
COC(=O)c1cc(C)nc(N2C3CC[C@H]2CC(OCc2c(-c4ccccc4OC(F)F)noc2C2CC2)C3)n1 (stereo partly drawn) [Example 22-5] | 27
COC(=O)c1cnc(N2C3CC[C@H]2CC(OCc2c(-c4ccccc4OC(F)F)noc2C2CC2)C3)cc1Cl (stereo partly drawn) [Example 22-6A] | 56
COC(=O)c1cnc(N2C3CC[C@H]2CC(OCc2c(-c4ccccc4OC(F)F)noc2C2CC2)C3)c(C)c1 (stereo partly drawn) [Example 22-7A] | 10
Cc1cc(C(=O)O)cnc1N1C2CC[C@H]1CC(OCc1c(-c3ccccc3OC(F)F)noc1C1CC1)C2 (stereo partly drawn) [Example 22-7B] | 5
Cc1cc(C(=O)O)nc(N2C3CC[C@H]2CC(OCc2c(-c4ccccc4OC(F)F)noc2C2CC2)C3)n1 (stereo partly drawn) [Example 22-8] | 5
COC(=O)c1ccc(N2C3CC[C@H]2CC(OCc2c(-c4ccccc4OC(F)F)noc2C2CC2)C3)nn1 (stereo partly drawn) [Example 22-9A] | 1030
O=C(O)c1ccc(N2C3CC[C@H]2CC(OCc2c(-c4ccccc4OC(F)F)noc2C2CC2)C3)nn1 (stereo partly drawn) [Example 22-9B] | 17
COC(=O)c1cnc(N2C3CC[C@H]2CC(OCc2c(-c4ccccc4OC(F)F)noc2C2CC2)C3)nc1 (stereo partly drawn) [Example 22-10A] | 360
O=C(O)c1cnc(N2C3CC[C@H]2CC(OCc2c(-c4ccccc4OC(F)F)noc2C2CC2)C3)nc1 (stereo partly drawn) [Example 22-10B] | 8
COC(=O)c1cnc(N2C3CC[C@H]2CC(OCc2c(-c4ccccc4OC(F)F)noc2C2CC2)C3)cn1 (stereo partly drawn) [Example 22-11A] | 110
O=C(O)c1cnc(N2C3CC[C@H]2CC(OCc2c(-c4ccccc4OC(F)F)noc2C2CC2)C3)cn1 (stereo partly drawn) [Example 22-11B] | 10
COC(=O)c1ccc(N2[C@@H]3CC[C@H]2C[C@@H](OCc2c(-c4c(F)cccc4F)noc2C2CC2)C3)nc1 [Example 22-13A] | 80
O=C(O)c1ccc(N2[C@@H]3CC[C@H]2C[C@@H](OCc2c(-c4c(F)cccc4F)noc2C2CC2)C3)nc1 [Example 22-13B] | 9
COC(=O)c1cnc(N2C3CC[C@H]2CC(OCc2c(-c4c(F)cccc4F)noc2C2CC2)C3)nc1 (stereo partly drawn) [Example 22-14A] | 70
O=C(O)c1cnc(N2C3CC[C@H]2CC(OCc2c(-c4c(F)cccc4F)noc2C2CC2)C3)nc1 (stereo partly drawn) [Example 22-14B] | 13
COC(=O)c1cnc(N2C3CC[C@H]2CC(OCc2c(-c4c(F)cccc4F)noc2C2CC2)C3)cn1 (stereo partly drawn) [Example 22-15A] | 130
O=C(O)c1cnc(N2[C@@H]3CC[C@H]2C[C@@H](OCc2c(-c4c(F)cccc4F)noc2C2CC2)C3)cn1 [Example 22-15B] | 28
COC(=O)c1cnc(N2[C@@H]3CC[C@H]2C[C@@H](OCc2c(-c4c(F)cccc4F)noc2C2CC2)C3)cc1C(F)(F)F [Example 22-16A] | 160
O=C(O)c1cnc(N2C3CC[C@H]2CC(OCc2c(-c4c(F)cccc4F)noc2C2CC2)C3)cc1C(F)(F)F (stereo partly drawn) [Example 22-16B] | 10
COC(=O)c1cnc(N2[C@@H]3CC[C@H]2C[C@@H](OCc2c(-c4c(F)cccc4F)noc2C2CC2)C3)c(C2CC2)c1 [Example 22-17A] | 65
O=C(O)c1cnc(N2[C@@H]3CC[C@H]2C[C@@H](OCc2c(-c4c(F)cccc4F)noc2C2CC2)C3)c(C2CC2)c1 [Example 22-17B] | 3
COC(=O)c1cc(C)nc(N2C3CC[C@H]2CC(OCc2c(-c4c(F)cccc4F)noc2C2CC2)C3)n1 (stereo partly drawn) [Example 22-18A] | 43
